Among the data in patent publication US10611759B2, “Glutaminase inhibitors” (Rhizen Pharmaceuticals SA, priority 2014, dated 2020) are inhibition values, retold here.

The structures appear in SMILES notation. Like-named read-outs stand apart in the source and are kept apart here.

This assay concerns the target T1, Glutaminase(Brain) (Mus musculus, UniProt D3Z7P3).
T1 sequence (D3Z7P3 55-674): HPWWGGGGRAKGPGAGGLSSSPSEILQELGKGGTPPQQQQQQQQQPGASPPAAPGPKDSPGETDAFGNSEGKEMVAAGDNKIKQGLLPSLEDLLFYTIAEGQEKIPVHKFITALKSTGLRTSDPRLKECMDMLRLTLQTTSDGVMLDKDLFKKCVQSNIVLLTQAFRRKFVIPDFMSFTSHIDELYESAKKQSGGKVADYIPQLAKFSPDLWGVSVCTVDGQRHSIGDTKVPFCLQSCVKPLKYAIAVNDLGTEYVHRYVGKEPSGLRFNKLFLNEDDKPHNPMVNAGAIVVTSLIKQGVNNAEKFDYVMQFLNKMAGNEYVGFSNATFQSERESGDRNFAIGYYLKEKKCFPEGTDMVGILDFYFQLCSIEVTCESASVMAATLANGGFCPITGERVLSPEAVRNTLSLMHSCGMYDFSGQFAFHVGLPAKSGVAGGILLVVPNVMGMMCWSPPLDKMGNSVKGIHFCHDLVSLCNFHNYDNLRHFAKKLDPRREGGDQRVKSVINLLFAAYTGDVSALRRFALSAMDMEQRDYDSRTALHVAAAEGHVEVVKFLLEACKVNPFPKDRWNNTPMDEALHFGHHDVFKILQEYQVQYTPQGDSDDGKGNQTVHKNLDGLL
In words: Glutaminase enzyme activity using glutaminase enzyme from mice brain/kidney homogenate (Nessler's reagent, ammonia). Format: biochemical. The note with it: for inhibition at 0.1 µM: read-out: Glutaminase(Brain) activity % inhibition 0.1 μM; for inhibition at 1 µM: read-out: Glutaminase(Brain) activity % inhibition @1 μM. The protocol:
Assay 3: Determination of Glutaminase Enzyme Activity Using Glutaminase Enzyme from Mice Brain/Kidney
Step 1: Preparation of Tissue Homogenates:
Male Balb/c mice were administered 0.28 M ammonium chloride in drinking water for 7 days. The animals were sacrificed and brain/kidney organs collected on dry ice. […] The tissue was homogenized and supernatants were stored at −80° C. until the enzyme assay was performed.
Aim: Compounds were assessed for their ability to inhibit the enzymatic activity of L-glutaminase present in mice brain/kidney homogenate.
Protocol: The assay was performed using a colorimetric method using Nessler's Reagent by quantifying the amount of ammonia formed as a by product during the enzymatic conversion of L-glutamine to glutamate. In the routine assay, 16 μl of tissue homogenate is added to 33 μl of Tris-Hcl phosphate buffer (pH 8) along with 1 μl of DMSO/test compound containing the desired final concentration and vortexed briefly. 50 μl of 20 mM L-glutamine Tris buffer is added to start the reaction and incubated for 15 minutes at 37° C. The ammonia formed is detected by adding 20 μl of reaction mixture to cold water in a 96 well plate followed by 20 μl of Nessler's reagent. The colour developed is measured at 450 nm. Data Analysis: Activity of the test compound is reported as % inhibition and the data is analyzed using Graphpad Prism (Graphpad software; San Diego Calif.) for IC50 determination.

In the case of `O=C(Cc1cccc(OC(F)(F)F)c1)Nc1ccc(N2CCCC(c3nnc(NC(=O)Cc4ccccn4)s3)C2)cn1` (racemic) [Example 2, (RS)-2-(Pyridin-2-yl)-N-(5-(1-(6-(2-(3-(trifluoromethoxy)phenyl)acetamido)pyridin-3-yl)piperidin-3-yl)-1,3,4-thiadiazol-2-yl)acetamide], the inhibition (commonly the drop in the measured response relative to a control, in per cent) at 0.1 µM (0.1 μM, mice brain homogenate) was less than 25%. Also, the inhibition at 1 µM (1 μM, mice brain homogenate) lay within 25 to 50%.
For `O=C(Cc1cccc(OC(F)(F)F)c1)Nc1ccc(N2CCCC(c3nnc(NC(=O)Cc4ccccn4)s3)C2)cn1` (single isomer, unassigned) [Example 2A, (R) or (S) 2-(Pyridin-2-yl)-N-(5-(1-(6-(2-(3-(trifluoromethoxy)phenyl)acetamido)pyridin-3-yl)piperidin-3-yl)-1,3,4-thiadiazol-2-yl)acetamide], for the setting “0.1 μM, mice brain homogenate”, the inhibition at 0.1 µM is less than 25%. Moreover, the inhibition at 1 µM (1 μM, mice brain homogenate) was less than 25%.
Take `O=C(Cc1cccc(OC(F)(F)F)c1)Nc1ccc(N2CCCC(c3nnc(NC(=O)Cc4cccnc4)s3)C2)cn1` (single isomer, unassigned) [Example 3B, (S) or (R) 2-(Pyridin-3-yl)-N-(5-(1-(6-(2-(3-(trifluoromethoxy)phenyl)acetamido)pyridine-3-yl)piperidin-3-yl)-1,3,4-thiadiazol-2-yl)acetamide]: the inhibition at 0.1 µM (0.1 μM, mice brain homogenate) is less than 25%. The inhibition at 1 µM (1 μM, mice brain homogenate) was less than 25%.
As to `O=C(Cc1cccc(OC(F)(F)F)c1)Nc1ccc(N2CCC(c3nnc(NC(=O)Cc4ccccn4)s3)CC2)cn1` [Example 1, 2-(Pyridin-2-yl)-N-(5-(1-(6-(2-(3-(trifluoromethoxy)phenyl)acetamido)pyridin-3-yl)piperidin-4-yl)-1,3,4-thiadiazol-2-yl)acetamide], the inhibition at 0.1 µM was less than 25% and the inhibition at 1 µM was 50 to 75%.
For `N#Cc1cccc(CC(=O)Nc2nnc(C3CCN(c4ccc(NC(=O)Cc5cccc(OC(F)(F)F)c5)nc4)CC3)s2)c1` [Example-5, 2-(3-Cyanophenyl)-N-(5-(1-(6-(2-(3-(trifluoromethoxy)phenyl)acetamido)pyridin-3-yl)piperidin-4-yl)-1,3,4-thiadiazol-2-yl)acetamide], the inhibition at 0.1 µM (0.1 μM, mice brain homogenate) was less than 25%. Where the note is “1 μM, mice brain homogenate”, the inhibition at 1 µM was 25 to 50%.
As to `O=C(Cc1ccccn1)Nc1ccc(N2CCC(c3nnc(NC(=O)Cc4cccc(OC(F)(F)F)c4)s3)CC2)cn1` [Example-6, 2-(Pyridin-2-yl)-N-(5-(4-(5-(2-(3-(trifluoromethoxy)phenyl)acetamido)-1,3,4-thiadiazol-2-yl)piperidin-1-yl)pyridin-2-yl)acetamide], the inhibition at 0.1 µM (0.1 μM, mice brain homogenate) is less than 25%. Besides, the inhibition at 1 µM (1 μM, mice brain homogenate) was less than 25%.
As to `O=C(Cc1cccc(OC(F)(F)F)c1)Nc1ccc(N2CCCC(c3nnc(NC(=O)Cc4ccccc4Cl)s3)C2)nn1` (stereo not shown) [Example-13, 2-(2-Chlorophenyl)-N-(5-(1-(6-(2-(3-(trifluoromethoxy)phenyl)acetamido)pyridazin-3-yl)piperidin-3-yl)-1,3,4-thiadiazol-2-yl)acetamide], where the note is “0.1 μM, mice brain homogenate”, the inhibition at 0.1 µM was less than 25%. Further, for the setting “1 μM, mice brain homogenate”, the inhibition at 1 µM fell in the range of 50 to 75%.
With `O=C(Cc1cccnc1)Nc1ccc(N2CCC(c3nnc(NC(=O)Cc4c(F)ccc(F)c4F)s3)CC2)nn1` [Example-19, 2-(Pyridin-3-yl)-N-(6-(4-(5-(2-(2,3,6-trifluorophenyl)acetamido)-1,3,4-thiadiazol-2-yl)piperidin-1-yl)pyridazin-3-yl)acetamide], the inhibition at 0.1 µM (0.1 μM, mice brain homogenate) was in the range of 50 to 75%. Moreover, the inhibition at 1 µM (1 μM, mice brain homogenate) lay within 75 to 100%.
As for `O=C(Cc1ccccn1)Nc1ccc(N2CCC(c3nnc(NC(=O)Cc4c(F)ccc(F)c4F)s3)CC2)nn1` [Example-20, 2-(Pyridin-2-yl)-N-(6-(4-(5-(2-(2,3,6-trifluorophenyl)acetamido)-1,3,4-thiadiazol-2-yl)piperidin-1-yl)pyridazin-3-yl)acetamide], the inhibition at 0.1 µM (0.1 μM, mice brain homogenate) is 25 to 50%. For the setting “1 μM, mice brain homogenate”, the inhibition at 1 µM lay in the range of 50 to 75%.
Consider `O=C(Cc1ccccn1)Nc1ccc(N2CCC(c3nnc(NC(=O)Cc4cccc(F)c4F)s3)CC2)nn1` [Example-21, 2-(2,3-Difluorophenyl)-N-(5-(1-(6-(2-(pyridin-2-yl)acetamido)pyridazin-3-yl)piperidin-4-yl)-1,3,4-thiadiazol-2-yl)acetamide], for which the inhibition at 0.1 µM (0.1 μM, mice brain homogenate) was in the range of 50 to 75%. Besides, the inhibition at 1 µM (1 μM, mice brain homogenate) was 75 to 100%.
Take `O=C(Cc1ccccn1)Nc1ccc(N2CCC(c3nnc(NC(=O)Cc4ccc(F)c(F)c4)s3)CC2)nn1` [Example-22, 2-(3,4-Difluorophenyl)-N-(5-(1-(6-(2-(pyridin-2-yl)acetamido)pyridazin-3-yl)piperidin-4-yl)-1,3,4-thiadiazol-2-yl)acetamide]: under “0.1 μM, mice brain homogenate”, the inhibition at 0.1 µM is 50 to 75%. The inhibition at 1 µM (1 μM, mice brain homogenate) was in the range of 75 to 100%.
For the compound `O=C(Cc1ccccn1)Nc1ccc(N2CCC(c3nnc(NC(=O)Cc4ccccc4F)s3)CC2)nn1` [Example-23, 2-(2-Fluorophenyl)-N-(5-(1-(6-(2-(pyridin-2-yl)acetamido)pyridazin-3-yl)piperidin-4-yl)-1,3,4-thiadiazol-2-yl)acetamide], the inhibition at 0.1 µM (0.1 μM, mice brain homogenate) lay in the range of 50 to 75%. Besides, the inhibition at 1 µM (1 μM, mice brain homogenate) lay in the range of 75 to 100%.
Regarding `O=C(Cc1ccccn1)Nc1ccc(N2CCC(c3nnc(NC(=O)Cc4cccc(F)c4)s3)CC2)nn1` [Example-24, 2-(3-Fluorophenyl)-N-(5-(1-(6-(2-(pyridin-2-yl)acetamido)pyridazin-3-yl)piperidin-4-yl)-1,3,4-thiadiazol-2-yl)acetamide], the inhibition at 0.1 µM (0.1 μM, mice brain homogenate) was in the range of 50 to 75%. Further, the inhibition at 1 µM (1 μM, mice brain homogenate) was in the range of 75 to 100%.
With `O=C(Cc1ccccn1)Nc1ccc(N2CCC(c3nnc(NC(=O)Cc4ccc(F)cc4)s3)CC2)nn1` [Example-25, 2-(4-Fluorophenyl)-N-(5-(1-(6-(2-(pyridin-2-yl)acetamido)pyridazin-3-yl)piperidin-4-yl)-1,3,4-thiadiazol-2-yl)acetamide], under “0.1 μM, mice brain homogenate”, the inhibition at 0.1 µM lay in the range of 50 to 75%. In addition, the inhibition at 1 µM (1 μM, mice brain homogenate) lay within 75 to 100%.
As for `COc1ccccc1CC(=O)Nc1nnc(C2CCN(c3ccc(NC(=O)Cc4ccccn4)nn3)CC2)s1` [Example-26, 2-(2-Methoxyphenyl)-N-(5-(1-(6-(2-(pyridin-2-yl)acetamido)pyridazin-3-yl)piperidin-4-yl)-1,3,4-thiadiazol-2-yl)acetamide], the inhibition at 0.1 µM (0.1 μM, mice brain homogenate) fell in the range of 50 to 75%. For the setting “1 μM, mice brain homogenate”, the inhibition at 1 µM lay in the range of 75 to 100%.
For the compound `O=C(Cc1ccccn1)Nc1ccc(N2CCC(c3nnc(NC(=O)Cc4ccccc4Cl)s3)CC2)nn1` [Example-27, 2-(2-Chlorophenyl)-N-(5-(1-(6-(2-(pyridin-2-yl)acetamido)pyridazin-3-yl)piperidin-4-yl)-1,3,4-thiadiazol-2-yl)acetamide], under “0.1 μM, mice brain homogenate”, the inhibition at 0.1 µM was 50 to 75%. For the same compound, the inhibition at 1 µM (1 μM, mice brain homogenate) was 75 to 100%.
Turning to `O=C(Cc1ccccn1)Nc1ccc(N2CCC(c3nnc(NC(=O)Cc4cc(Cl)ccc4C(F)(F)F)s3)CC2)nn1` [Example-28, 2-(5-Chloro-2-(trifluoromethyl)phenyl)-N-(5-(1-(6-(2-(pyridin-2-yl)acetamido)pyridazin-3-yl)piperidin-4-yl)-1,3,4-thiadiazol-2-yl)acetamide], the inhibition at 0.1 µM (0.1 μM, mice brain homogenate) was in the range of 50 to 75%. The inhibition at 1 µM (1 μM, mice brain homogenate) is 50 to 75%.
`O=C(Cc1ccccn1)Nc1ccc(N2CCC(c3nnc(NC(=O)Cc4ccc(Cl)cc4)s3)CC2)nn1` [Example-29, 2-(4-Chlorophenyl)-N-(5-(1-(6-(2-(pyridin-2-yl)acetamido)pyridazin-3-yl)piperidin-4-yl)-1,3,4-thiadiazol-2-yl)acetamide]: the inhibition at 0.1 µM (0.1 μM, mice brain homogenate) was 50 to 75%. The inhibition at 1 µM (1 μM, mice brain homogenate) is 75 to 100%.
On to `O=C(Cc1cccc(OC(F)(F)F)c1)Nc1ccc(N2CCC(c3nnc(NC(=O)Cc4ccc5ncccc5c4)s3)CC2)nn1` [Example-30, 2-(Quinolin-6-yl)-N-(5-(1-(6-(2-(3-(trifluoromethoxy)phenyl)acetamido)pyridazin-3-yl)piperidin-4-yl)-1,3,4-thiadiazol-2-yl)acetamide], for which the inhibition at 0.1 µM (0.1 μM, mice brain homogenate) is 50 to 75%. Moreover, the inhibition at 1 µM (1 μM, mice brain homogenate) was 75 to 100%.
Turning to `Cc1ccccc1CC(=O)Nc1nnc(C2CCN(c3ccc(NC(=O)Cc4cccc(OC(F)(F)F)c4)nn3)CC2)s1` [Example-31, 2-o-Tolyl-N-(5-(1-(6-(2-(3-(trifluoromethoxy)phenyl)acetamido)pyridazin-3-yl)piperidin-4-yl)-1,3,4-thiadiazol-2-yl)acetamide], the inhibition at 0.1 µM (0.1 μM, mice brain homogenate) fell in the range of 25 to 50%. For the same compound, the inhibition at 1 µM (1 μM, mice brain homogenate) fell in the range of 50 to 75%.
